One data set has as its target T1, Tn5 transposase (Escherichia coli, UniProt Q46731, E54K/L372P/M56A).
T1 construct: made in house
The data set is classed as binding.

Another data set deals with HIV-1. As for the experimental part:
HIV-1 transduction assay and inhibitory screen: 10,000 Ghost-R5 cells per well were plated in a 384 well plate in 49 μL media. 18 hours after plating, 1 μL of inhibitory compound, dissolved in DMSO, was added and gently mixed into solution. Following a 1 hour 37° C. incubation, HIV-1 virions were added in a final infectious volume of 100 μL. 44-48 hours after infection, 87 μL of media was removed from each well, and 13 μL/well of Bright-Glo luciferase detection reagent (Promega) was added. After a 2 minute incubation, the plates were read on a multiwell plate luminometer.
In parallel, cells infected with virus and compound were assayed for luciferase expression by the addition of […] of Bright-Glo reagent, as described above. In this way, effect of the inhibitory compounds on luciferase expression brought about by successful transduction was measured in the constant presence of the compounds.

Data set [1] relates to HIV reverse transcription. Briefly: Quantitative real-time PCR of reverse transcripts in acutely infected cells. It counts as cell-based, HIV-1. The settings on record: 75 μM inhibitor, QPCR. As for the experimental part: Quantitative real-time PCR of reverse transcripts, detection of transduction in newly infected cells, and effect of compounds on established provirus expression in stably infected cells: 10,000 Ghost-R5 cells were plated in 96 well dishes, treated with compound in a total volume of 75 μL, and incubated at 37° C. for 1 hour. Virus was then added in an additional volume of 25 μL. The final infectious volume was 100 μL, the final DMSO concentration was 1%, and the final compound concentration was as indicated. DNA was harvested using the DNeasy kit (Qiagen) 24 hours after infection in the constant presence of inhibitory compounds. Late DNA products of HIV reverse transcription were quantitated using the primers MH531 and MH532, and the probe LTR-P, as described in Burke, T. R. et al., J Med Chem 38:4171-8, 1995, herein incorporated by reference in its entirety.
On the technique in general: Real-time PCR tracks product formation cycle by cycle.

For data set [2], the system named is luciferase expression from proviral DNA. Briefly: Established provirus luciferase expression in stably infected Ghost-R5 cells. The data set is classed as cell-based, HIV-1. The following applies: 75 μM inhibitor, chronically infected cells.
Procedure: To assess the potential effects of the inhibitory compounds on post-integration events such as transcription, translation, and luciferase enzyme stability and activity, Ghost-R5 cells stably infected several weeks earlier with the same virus preparation were incubated with inhibitory compound in 96 well dishes and luciferase activity was monitored 48 hours later by the addition of 100 μL of Bright-Glo reagent to each well, as described above.
A further data set deals with HIV-1 integrase (Human immunodeficiency virus type 1 group M subtype B, UniProt P04585). Briefly: HIV-1 integrase assay (3' strand processing, PAGE). Set-up: made in house. It counts as biochemical. As for the experimental part:
HIV-1 integrase assay: HIV-1 integrase activity was measured as described in Daniel, R. et al., AIDS Res Hum Retroviruses 20:135-44, 2004 (incorporated by reference in its entirety), except that 1.0 μL of either DMSO or inhibitor were added to the reactions. Briefly, HIV-1 integrase (1 μM, final concentration) was pre-incubated with various concentrations of inhibitor at 30° C. for 30 min. A 21-base pair ^32P labeled substrate (1×10^6 dpm), representing the U5 end of the viral genome, and MnCl2 (10 mM, final concentration) were subsequently added to the reaction. The reaction proceeded for 15 min. at 37° C. The reactions were subsequently quenched using EDTA (10 mM, final concentration), and the products separated on a 20% denaturing polyacrylamide gel.

The subject of data set [3] is restriction enzyme BsmA I. Briefly: Inhibition of the restriction enzyme BsmA I (compound specificity). The data set is classed as biochemical. The settings on record: 120 μM compound. As to the method:
Inhibition of the restriction enzyme BsmA I was analyzed to determine compound specificity. Reactions were carried out in 2×NEB Buffer 3 with 160 nM dsDNA, 10 units of BsmA I (New England Biolabs), and 120 μM lead compound. Reactions were incubated at 55° C. for one hour followed by a 20 minute 80° C. heat inactivation step prior to gel electrophoresis. Samples were loaded onto a 9% native polyacrylamide gel and run at 300V for 2.5 hours. Gels were subsequently imaged and quantitated as described for the synapsis assays.

A further data set concerns Ghost-R5 cells. Briefly: Cytotoxicity assay (Cell Titer Glo). It counts as cell-based. As for the experimental part:
Cytotoxicity assay: Cytotoxicity assays were performed exactly as the infection assay described above, except media without virus was added following compound addition, and Cell Titer Glo (Promega) viability reagent was added in place of Bright Glo.
(In general: Cellular ATP, detected with luciferase, serves as a proxy for viable cell number.)

Entries after “also recorded” stand apart in the source; their conditions may differ.

Procedure for Tn5 transposase: For FP analysis, 60 μL reactions were analyzed using the FP protocol on a Wallac Victor V plate reader and a 7% native polyacrylamide gel was used in gel shift assays. For compound screening and subsequent analysis, 1 μL of either DMSO or test compound (final concentration 80 KIM) was added to the synapsis reactions. Compound screening was carried out using a Beckman Coulter Biomek FX in a 384 well format. Compounds identified as hits were rescreened using gel shift assays under synapsis conditions with a 120 μM compound concentration. IC50 values were obtained by fitting inhibitor titration data (0, 0.01, 0.05, 0.1, 0.5, 2.5, 10, 20, 35, 50, 100, 200, 400, 800 μM) to an exponential decay.

For `COc1ccc(N2C(=O)C(O)=C(C(=O)/C=C/c3ccccc3)C2c2cccc([N+](=O)[O-])c2)cc1` (stereo not drawn) [10-B], the “inhibition of transposase assembly (in words)” value on Tn5 transposase is on record as “inhibit”. The “inhibition of HIV-1 infection in cells (in words)” value (“inhibition of HIV-1 infection” for short) with HIV-1 was “inhibit”. For the same compound, in data set [1], the “effect on reverse transcription (viral DNA synthesis)” value (from here on “effect on reverse transcription”) was “either uninhibited, or only inhibited to a small extent; also recorded: no significant inhibitory effect”. Further, the “effect on luciferase expression from proviral DNA” value (“effect on luciferase expression” below) in data set [2] is “no significant inhibitory effect”. Also, on HIV-1 integrase, the “inhibition of integrase in vitro (in words)” value (shortened to “inhibition of integrase”) is “inhibit”.

As to `O=C(/C=C/c1ccccc1)C1=C(O)C(=O)N(c2cccc(C(F)(F)F)c2)C1c1ccc([N+](=O)[O-])cc1` (stereo not drawn) [compound 10-F], the “inhibition of transposase assembly (in words)” value on Tn5 transposase is “inhibit”. In addition, the “inhibition of BsmA I activity” value in data set [3] is “partially inhibits”. Also, the “inhibition of HIV-1 infection” value with HIV-1 is “inhibit”. In data set [1], the “effect on reverse transcription” value was “either uninhibited, or only inhibited to a small extent; also recorded: no significant inhibitory effect”. In data set [2], the “effect on luciferase expression” value is recorded as “no significant inhibitory effect”. Also, the “inhibition of integrase” value against HIV-1 integrase was “inhibit”.

With `O=C(/C=C/c1ccccc1)C1=C(O)C(=O)N(c2ccccc2)C1c1cccc([N+](=O)[O-])c1` (stereo not drawn) [compound 10], the “inhibition of transposase assembly (in words)” value against Tn5 transposase was “inhibit”. Also, in the data set with HIV-1, the “inhibition of HIV-1 infection” value is on record as “inhibit”. Besides, the “effect on gross cell viability” value in the data set on Ghost-R5 cells (75 μM inhibitor) was “no significant inhibitory effect”. In addition, the “LD50 relative to ED50” value in the data set on Ghost-R5 cells (Ghost-R5 cells, cytotoxicity vs transduction) was “at least 2 fold”. Also, in data set [1], the “effect on reverse transcription” value is on record as “either uninhibited, or only inhibited to a small extent; also recorded: no significant inhibitory effect”. In addition, in data set [2], the “effect on luciferase expression” value was “no significant inhibitory effect”. In addition, the “inhibition of integrase” value against HIV-1 integrase was “inhibit”.

For the origin of these results see patent US20090098548A1, “MODULATORS OF ENZYMATIC NUCLEIC ACID ELEMENTS MOBILIZATION” (priority 2004, published 2009).
